Reference: the NIST ThermoML archive (doi:10.1021/je050031f)

How the values were obtained:
[1] = refractive index (Na D-line) (dimensionless); xn = mol fraction of the nth substance listed; details: 100.8 kPa, Liquid, Standard Abbe refractometry
[2] = xn = mol fraction of the nth substance listed; details: 100.8 kPa, Liquid

CC(C)OC(C)C [diisopropyl ether] + CCO
Details	mass density, 288.15 K [kg/m3]	mass density, 298.15 K [kg/m3]	mass density, 308.15 K [kg/m3]	refractive index, 288.15 K	refractive index, 298.15 K	refractive index, 308.15 K	viscosity, 288.15 K [mPa·s]	viscosity, 298.15 K [mPa·s]	viscosity, 308.15 K [mPa·s]
[1], x1 = 0.05	–	–	–	1.3657	1.36097	1.35649	–	–	–
[1], x1 = 0.1	–	–	–	1.36697	1.36212	1.35757	–	–	–
[1], x1 = 0.15	–	–	–	1.368	1.36316	1.35852	–	–	–
[1], x1 = 0.2	–	–	–	1.36883	1.36395	1.35926	–	–	–
[1], x1 = 0.25	–	–	–	1.36952	1.36457	1.3598	–	–	–
[1], x1 = 0.3	–	–	–	1.37013	1.36509	1.36021	–	–	–
[1], x1 = 0.35	–	–	–	1.37062	1.3655	1.36057	–	–	–
[1], x1 = 0.4	–	–	–	1.37102	1.36587	1.36083	–	–	–
[1], x1 = 0.45	–	–	–	1.37134	1.36612	1.36102	–	–	–
[1], x1 = 0.5	–	–	–	1.37158	1.36632	1.36113	–	–	–
[1], x1 = 0.55	–	–	–	1.37175	1.36644	1.36119	–	–	–
[1], x1 = 0.6	–	–	–	1.3719	1.36651	1.36118	–	–	–
[1], x1 = 0.65	–	–	–	1.37197	1.36652	1.36116	–	–	–
[1], x1 = 0.7	–	–	–	1.37196	1.36651	1.36112	–	–	–
[1], x1 = 0.75	–	–	–	1.37192	1.36645	1.36103	–	–	–
[1], x1 = 0.8	–	–	–	1.37188	1.36635	1.36089	–	–	–
[1], x1 = 0.85	–	–	–	1.37178	1.36621	1.36071	–	–	–
[1], x1 = 0.9	–	–	–	1.37162	1.36597	1.36042	–	–	–
[1], x1 = 0.95	–	–	–	1.37141	1.36566	1.36	–	–	–
[1], x1 = 1	–	–	–	1.37126	1.36537	1.35954	–	–	–
[2], x1 = 0.05	788.3	779.8	771	–	–	–	1.176	0.976	0.815
[2], x1 = 0.1	783.4	774.8	765.8	–	–	–	1.047	0.876	0.737
[2], x1 = 0.15	778.8	770	760.9	–	–	–	0.946	0.793	0.671
[2], x1 = 0.2	774.7	765.7	756.4	–	–	–	0.851	0.718	0.613
[2], x1 = 0.25	770.7	761.4	752	–	–	–	0.772	0.655	0.562
[2], x1 = 0.3	766.9	757.5	747.9	–	–	–	0.705	0.605	0.52
[2], x1 = 0.35	763.3	753.9	744.2	–	–	–	0.649	0.559	0.484
[2], x1 = 0.4	760	750.4	740.7	–	–	–	0.6	0.519	0.452
[2], x1 = 0.45	756.9	747.1	737.3	–	–	–	0.559	0.487	0.427
[2], x1 = 0.5	753.8	744.1	734.1	–	–	–	0.523	0.457	0.403
[2], x1 = 0.55	751	741.2	731.1	–	–	–	0.494	0.432	0.382
[2], x1 = 0.6	748.3	738.4	728.3	–	–	–	0.467	0.413	0.364
[2], x1 = 0.65	745.7	735.8	725.6	–	–	–	0.445	0.393	0.349
[2], x1 = 0.7	743.2	733.2	723	–	–	–	0.424	0.378	0.335
[2], x1 = 0.75	740.7	730.7	720.5	–	–	–	0.407	0.363	0.325
[2], x1 = 0.8	738.3	728.3	718	–	–	–	0.393	0.349	0.315
[2], x1 = 0.85	735.8	725.8	715.5	–	–	–	0.379	0.338	0.306
[2], x1 = 0.9	733.5	723.4	713.1	–	–	–	0.367	0.33	0.298
[2], x1 = 0.95	731.1	720.9	710.6	–	–	–	0.367	0.319	0.29
[2], x1 = 1	729	718.6	707.9	–	–	–	0.347	0.313	0.283
